Reference: patent US5637582A, “Peripheral circulation improving agent” (priority 1992, dated 1997)

What was measured:
arterial blood pressure = assay: Change of arterial blood pressure in anesthetized dogs (Experimental Example 4); settings: 100 μg/kg i.v.
Description: Each test compound was intravenously administered to adult dogs (one group consisting of 2 or 4 dogs) under anesthesia and artificial respiration at a dose of 100 μg/kg body weight. Femoral arterial blood flow, vertebral arterial blood flow and arterial blood pressure were measured 1, 3, 5, 10, 20 and 30 minutes after the administration. The femoral arterial blood flow and vertebral arterial blood flow were measured with an electromagnetic blood flowmeter (manufactured by Nihon Koden, MFV-2100, trade name) through a flow probe attached to the femoral artery or vertebral artery. The arterial blood pressure was measured with a pressure transducer (manufactured by Millar, MICRO-TIP, Model SPC-350) through a catheter attached to the brachial artery.
Changes of the femoral arterial blood flow, vertebral arterial blood flow and arterial blood pressure were estimated by comparing the values measured before and after the administration of the test compound.

[1] = system: right anterior tibial muscle; assay: Abdominal aorta knot-anterior tibial muscle contraction model: model of Buerger's disease (Experimental Example 6); assay type: in vivo, rat; design: Change in contraction of the right anterior tibial muscle: unit not given here; settings: 10 mg/kg/day p.o. 2 weeks
Description: (Abdominal aorta knot-anterior tibial muscle contraction model: Model of Buerger's disease)
Rats were previously divided into four groups (Group I: sham operation+5 ml/kg/day of distilled water, Group II: sham operation+10 mg/kg/day of the test compound A, Group III: abdominal aorta knot+5 ml/kg/day of distilled water, and Group IV: abdominal aorta knot+10 mg/kg/day of the test compound A), and operated under anesthesia, 10 mg/kg/day of the test compound A or 5 ml/kg/day of distilled water was orally administered to respective rats, to which an abdominal aorta was knotted or a sham operation was applied, for 2 weeks. Thereafter, a catheter was inserted into a trachea to secure airway under anesthesia. A skin at the right hind leg was cut to expose a muscle and a right anterior tibial muscle was isolated. After the operation, at the time that the state became stable, 10 mg/kg of the test compound A or 1 ml/kg of 0.25% CMC was administered into a duodenum. After 60 minutes from the administration, a tendon of the right anterior tibial muscle was connected with a transducer and the right anterior tibial muscle was directly stimulated electrically with platinum electrodes at 0.5 Hz to obtain a Force-Current curve. Then, electrical stimulation was carried out with a current which submaximally contracted the right anterior tibial muscle and a stimulation frequency of 1.5 Hz for 30 minutes to observe the progress. […]

CC(=O)O[C@@H]1C(=O)N(CCN(C)C)c2ccc(C)cc2S[C@@H]1c1ccc(C)cc1 [Compound A]
Arterial Blood Pressure change (side effects) (arterial blood pressure; 1 min): -1.3 ΔmmHg | Arterial Blood Pressure change (side effects) (arterial blood pressure; 3 min): -0.8 ΔmmHg | Arterial Blood Pressure change (side effects) (arterial blood pressure; 5 min): -1.8 ΔmmHg | Arterial Blood Pressure change (side effects) (arterial blood pressure; 10 min): -1.8 ΔmmHg | Arterial Blood Pressure change (side effects) (arterial blood pressure; 20 min): -2.3 ΔmmHg | Arterial Blood Pressure change (side effects) (arterial blood pressure; 30 min): -0.5 ΔmmHg | effect on arterial blood pressure (arterial blood pressure; G and H: one minute after, in words): substantially no effect | Time (min) until 20A% contraction ([1]; Group II: sham operation): 16.65 ± 2.99 min | Change in contraction of the right anterior tibial muscle ([1]; Group II: sham operation, 1 min): 3.29 | Change in contraction of the right anterior tibial muscle ([1]; Group II: sham operation, 3 min): 1.71 | Change in contraction of the right anterior tibial muscle ([1]; Group II: sham operation, 5 min): -1.29 | Change in contraction of the right anterior tibial muscle ([1]; Group II: sham operation, 10 min): -12.88 | Change in contraction of the right anterior tibial muscle ([1]; Group II: sham operation, 15 min): -20.91 | Change in contraction of the right anterior tibial muscle ([1]; Group II: sham operation, 20 min): -25.66 | Change in contraction of the right anterior tibial muscle ([1]; Group II: sham operation, 30 min): -30.19 | Time (min) until 20A% contraction ([1]; Group IV: abdominal aorta knot): 17.27 ± 3.70 min | Change in contraction of the right anterior tibial muscle ([1]; Group IV: abdominal aorta knot, 1 min): 2.44 | Change in contraction of the right anterior tibial muscle ([1]; Group IV: abdominal aorta knot, 3 min): -1.04 | Change in contraction of the right anterior tibial muscle ([1]; Group IV: abdominal aorta knot, 5 min): -4.35 | Change in contraction of the right anterior tibial muscle ([1]; Group IV: abdominal aorta knot, 10 min): -15.46 | Change in contraction of the right anterior tibial muscle ([1]; Group IV: abdominal aorta knot, 15 min): -21.82 | Change in contraction of the right anterior tibial muscle ([1]; Group IV: abdominal aorta knot, 20 min): -25.98 | Change in contraction of the right anterior tibial muscle ([1]; Group IV: abdominal aorta knot, 30 min): -30.17
